Read-outs that look alike come from different tables or passages of the source. Each block holds one molecule with its values, some of them ahead of it.
What was measured:
Lovo (KRAS^G13D) = assay: In vitro cell growth inhibition, CRC; format: cell-based; settings: Homo sapiens
A375 (BRAF^V600E) = assay: In vitro cell growth inhibition, melanoma; format: cell-based; settings: Homo sapiens, A-375, mean ± SD, n = 3
[1] = system: MEK and ERK phosphorylation in Lovo (KRAS^G13D) cells; assay: Inhibition of MEK and ERK phosphorylation, KRAS mutant; format: cell-based; settings: Homo sapiens, CRC Lovo, KRAS G13D, 2 hr treatment
SK-MEL-30 (NRAS^Q61K) = assay: In vitro cell growth inhibition, melanoma; format: cell-based; settings: Homo sapiens, mean ± SD, n = 3
Method: (§1) A G150 of 69, 57, 53, and 24 nM were determined for SK-MEL-28, A375, SK-MEL-2, and SK-MEL-30 cell lines, respectively.

SK-MEL-2 (NRAS^Q61R) = assay: In vitro cell growth inhibition, melanoma; format: cell-based; settings: Homo sapiens, mean ± SD, n = 3
Method: as §1

[2] = system: MEK and ERK phosphorylation in HCT116 (KRAS^G13D) cells; assay: Inhibition of MEK and ERK phosphorylation, KRAS mutant; format: cell-based; settings: Homo sapiens, HCT-116, CRC HCT116, KRAS G13D, 2 hr treatment
LS513 (KRAS^G12D) = assay: In vitro cell growth inhibition, CRC; format: cell-based; settings: Homo sapiens, LS-513
P-MEK / total MEK = assay: % P/T-MEK (ratio of P-MEK and total MEK)
Method: Belvarafenib was evaluated to measure the inhibition capability of RAF monomers and dimers. In Table 12: “A375” refers to the A375 a human melanoma cell line bearing a BRAF^V600E mutation; “IPC298” refers to the IPC298 cutaneous melanoma cell line bearing an NRAS^Q61L mutation; “A549” refers to the A549 lung adenocarcinoma cell line baring a KRAS mutation; “CSFR1” refers to the CSFR1 gene; “DDR1” refers to discoidin domain receptors DDR1; and “DDR2” refers to discoidin domain receptors DDR2. In Table 13: “% P/T−MEK” refers to the ratio of P-MEK and total MEK; “Conc 1” refers to an inhibitor first (lowest) concentration; “Conc 2” refers to an inhibitor second (intermediate) concentration; and “Conc 3” refers to an inhibitor third (highest) concentration. In Table 13, LXH254 refers to a drug having CAS No.: 1800398-38-2 and the following structure: […]

HCT116 (KRAS^G13D) = assay: In vitro cell growth inhibition, CRC; format: cell-based; settings: Homo sapiens, HCT-116
LS174T (KRAS^G12D) = assay: In vitro cell growth inhibition, CRC; format: cell-based; settings: Homo sapiens
Calu-1 (KRAS^G12C) = assay: In vitro cell growth inhibition, NSCLC; format: cell-based; settings: Homo sapiens
SK-MEL-28 (BRAF^V600E) = assay: In vitro cell growth inhibition, melanoma; format: cell-based; settings: Homo sapiens, mean ± SD, n = 3
[3] = system: MEK and ERK phosphorylation in Calu-6 (KRAS^Q61K) cells; assay: Inhibition of MEK and ERK phosphorylation, KRAS mutant; format: cell-based; settings: Homo sapiens, NSCLC Cau-6 (Calu-6), 2 hr treatment
Calu-6 (KRAS^Q61K) = assay: In vitro cell growth inhibition, NSCLC; format: cell-based; settings: Homo sapiens
HT-29 (BRAF^V600E) = assay: In vitro cell growth inhibition, CRC; format: cell-based; settings: Homo sapiens
8505C (BRAF^V600E) = assay: In vitro cell growth inhibition, thyroid cancer; format: cell-based; settings: Homo sapiens
SNU80 (BRAF^G468R) = assay: In vitro cell growth inhibition, thyroid cancer; format: cell-based
B-CPAP (BRAF^V600E) = assay: In vitro cell growth inhibition, thyroid cancer; format: cell-based; settings: Homo sapiens, BCPAP
[4] = system: MEK and ERK phosphorylation in SK-MEL-30 (NRAS^Q61K) cells; assay: Inhibition of MEK and ERK phosphorylation; format: cell-based; settings: Homo sapiens
NPA (BRAF^V600E) = assay: In vitro cell growth inhibition, thyroid cancer; format: cell-based
[5] = system: MEK and ERK phosphorylation in SK-MEL-2 (NRAS^Q61R) cells; assay: Inhibition of MEK and ERK phosphorylation; format: cell-based; settings: Homo sapiens
FRO (BRAF^V600E) = assay: In vitro cell growth inhibition, thyroid cancer; format: cell-based
SNU790 (BRAF^V600E) = assay: In vitro cell growth inhibition, thyroid cancer; format: cell-based; settings: SNU7890, BRAF^V600E
ARO (BRAF^V600E) = assay: In vitro cell growth inhibition, thyroid cancer; format: cell-based
[6] = system: MEK and ERK phosphorylation in A375 (BRAF^V600E) cells; assay: Inhibition of MEK and ERK phosphorylation; format: cell-based; settings: Homo sapiens
Colo-205 (BRAF^V600E) = assay: In vitro cell growth inhibition, CRC; format: cell-based; settings: Homo sapiens
[7] = system: MEK and ERK phosphorylation in SK-MEL-28 (BRAF^V600E) cells; assay: Inhibition of MEK and ERK phosphorylation; format: cell-based; settings: Homo sapiens
DDR2 = biological target: T1, DDR2 (Homo sapiens, UniProt Q16832); assay: In vitro kinase assay; format: biochemical; settings: confirmatory assay
T1 sequence (Q16832 22-855): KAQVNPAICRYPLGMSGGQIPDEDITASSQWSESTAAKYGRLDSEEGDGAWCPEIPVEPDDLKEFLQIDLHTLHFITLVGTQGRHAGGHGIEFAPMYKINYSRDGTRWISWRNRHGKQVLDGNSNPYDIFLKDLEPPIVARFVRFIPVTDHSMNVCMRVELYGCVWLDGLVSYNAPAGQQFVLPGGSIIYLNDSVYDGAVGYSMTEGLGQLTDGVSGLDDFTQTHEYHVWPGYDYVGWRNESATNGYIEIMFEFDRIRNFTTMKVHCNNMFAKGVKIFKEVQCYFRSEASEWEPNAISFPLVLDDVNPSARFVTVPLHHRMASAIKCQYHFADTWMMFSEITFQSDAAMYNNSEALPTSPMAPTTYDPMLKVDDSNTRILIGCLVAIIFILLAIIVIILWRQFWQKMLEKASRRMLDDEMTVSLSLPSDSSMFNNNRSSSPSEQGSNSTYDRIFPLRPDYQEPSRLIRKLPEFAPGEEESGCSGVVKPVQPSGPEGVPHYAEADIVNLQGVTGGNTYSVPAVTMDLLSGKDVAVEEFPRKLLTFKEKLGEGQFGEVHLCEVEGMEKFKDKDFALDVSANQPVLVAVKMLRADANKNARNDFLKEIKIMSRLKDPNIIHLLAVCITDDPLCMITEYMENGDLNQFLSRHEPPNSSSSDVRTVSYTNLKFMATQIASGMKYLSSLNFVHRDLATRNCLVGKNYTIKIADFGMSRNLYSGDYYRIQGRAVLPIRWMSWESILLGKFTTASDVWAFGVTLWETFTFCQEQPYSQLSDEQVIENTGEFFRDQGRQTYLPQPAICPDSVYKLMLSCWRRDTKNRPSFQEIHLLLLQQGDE
Method: (§2) The in vitro kinase inhibitory selectivity and activity of belvarafenib were evaluated in a kinase panel assay against 189 kinases and a subsequent confirmatory assay against selected kinases by using Z′-Lyte® biochemical assay, Lantha® binding assay and Adapter® assay.

CSF1R (FMS) = CSF1R (FMS) (Homo sapiens, UniProt P07333); assay: In vitro kinase assay; format: biochemical; settings: confirmatory assay
Method: as §2

DDR1 = DDR1 (Homo sapiens, UniProt Q08345); assay: In vitro kinase assay; format: biochemical; settings: confirmatory assay
Method: as §2

CAL-62 (KRAS^G12R) = assay: In vitro cell growth inhibition, thyroid cancer; format: cell-based; settings: Homo sapiens
NRAS-mutant melanoma = NRAS-mutant melanoma patients, NEMO study; cited from earlier work
[8] = Conc 1, first (lowest) concentration
[9] = Conc 2, second (intermediate) concentration
[10] = Conc 3, third (highest) concentration

CSF1R (FMS), sequence (P07333 20-972): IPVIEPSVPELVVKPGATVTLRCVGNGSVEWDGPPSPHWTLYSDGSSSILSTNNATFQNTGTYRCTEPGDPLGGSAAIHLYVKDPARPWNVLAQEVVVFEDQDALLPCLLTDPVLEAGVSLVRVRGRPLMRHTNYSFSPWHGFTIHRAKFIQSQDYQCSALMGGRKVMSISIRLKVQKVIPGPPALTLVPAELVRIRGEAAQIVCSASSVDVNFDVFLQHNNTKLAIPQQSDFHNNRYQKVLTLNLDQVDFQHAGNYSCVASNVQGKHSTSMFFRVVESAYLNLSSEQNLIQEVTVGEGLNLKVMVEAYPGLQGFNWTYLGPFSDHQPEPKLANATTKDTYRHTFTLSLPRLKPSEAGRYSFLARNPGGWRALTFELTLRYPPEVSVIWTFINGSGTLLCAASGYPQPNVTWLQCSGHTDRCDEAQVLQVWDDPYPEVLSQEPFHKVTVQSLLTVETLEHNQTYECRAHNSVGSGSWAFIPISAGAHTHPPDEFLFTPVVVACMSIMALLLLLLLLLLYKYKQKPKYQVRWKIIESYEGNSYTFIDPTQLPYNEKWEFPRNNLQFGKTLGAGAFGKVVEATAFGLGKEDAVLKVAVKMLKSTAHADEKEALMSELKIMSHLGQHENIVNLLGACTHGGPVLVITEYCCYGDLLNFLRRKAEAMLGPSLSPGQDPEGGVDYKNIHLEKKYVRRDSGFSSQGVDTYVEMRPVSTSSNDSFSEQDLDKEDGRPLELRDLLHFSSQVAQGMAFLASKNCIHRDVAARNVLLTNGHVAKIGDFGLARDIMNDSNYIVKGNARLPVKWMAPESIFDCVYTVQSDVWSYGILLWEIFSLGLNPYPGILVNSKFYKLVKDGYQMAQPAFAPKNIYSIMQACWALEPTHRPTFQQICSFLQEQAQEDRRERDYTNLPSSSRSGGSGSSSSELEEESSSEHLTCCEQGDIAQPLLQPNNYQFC
DDR1, sequence (Q08345 19-913): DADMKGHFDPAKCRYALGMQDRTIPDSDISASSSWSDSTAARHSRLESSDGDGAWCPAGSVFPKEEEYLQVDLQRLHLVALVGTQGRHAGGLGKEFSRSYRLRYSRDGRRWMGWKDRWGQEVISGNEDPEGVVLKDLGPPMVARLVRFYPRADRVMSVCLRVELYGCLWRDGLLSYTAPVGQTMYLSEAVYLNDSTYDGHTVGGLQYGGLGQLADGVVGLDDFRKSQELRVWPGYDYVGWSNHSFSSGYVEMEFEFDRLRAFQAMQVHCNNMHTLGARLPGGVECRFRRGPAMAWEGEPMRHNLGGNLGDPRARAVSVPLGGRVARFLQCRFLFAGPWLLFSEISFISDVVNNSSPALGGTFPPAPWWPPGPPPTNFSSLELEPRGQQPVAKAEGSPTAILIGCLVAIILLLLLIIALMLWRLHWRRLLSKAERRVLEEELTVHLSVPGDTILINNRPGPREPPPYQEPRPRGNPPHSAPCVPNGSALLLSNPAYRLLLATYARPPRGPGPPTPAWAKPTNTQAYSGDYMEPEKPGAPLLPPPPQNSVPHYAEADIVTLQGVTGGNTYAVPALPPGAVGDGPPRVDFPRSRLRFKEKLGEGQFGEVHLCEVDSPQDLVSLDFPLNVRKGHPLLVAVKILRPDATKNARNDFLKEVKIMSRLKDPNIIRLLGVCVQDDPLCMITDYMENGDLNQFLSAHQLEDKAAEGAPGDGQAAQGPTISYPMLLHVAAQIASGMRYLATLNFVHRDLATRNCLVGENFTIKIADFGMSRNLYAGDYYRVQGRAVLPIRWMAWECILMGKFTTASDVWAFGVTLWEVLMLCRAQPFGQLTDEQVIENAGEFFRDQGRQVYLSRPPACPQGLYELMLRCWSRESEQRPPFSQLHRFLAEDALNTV

Structure (SMILES): CC(C)(C)c1nc(-c2cccc(NS(=O)(=O)c3c(F)cccc3F)c2F)c(-c2ccnc(N)n2)s1 [Dabrafenib]
GI50 (Lovo (KRAS^G13D)): 214 nM
GI50 (A375 (BRAF^V600E)): < 0.1 nM
IC50 ([1]; read-out: IC50 pERK): > 10000 nM
IC50 ([1]; read-out: IC50 pMEK): > 10000 nM
GI50 (SK-MEL-30 (NRAS^Q61K)): 258 nM
GI50 (SK-MEL-2 (NRAS^Q61R)): 204 nM
IC50 ([2]; read-out: IC50 pERK): > 10000 nM
IC50 ([2]; read-out: IC50 pMEK): > 10000 nM
GI50 (LS513 (KRAS^G12D)): 3060 nM
% P/T-MEK (P-MEK / total MEK; [8]): 125%
% P/T-MEK (P-MEK / total MEK; [9]): 150%
% P/T-MEK (P-MEK / total MEK; [10]): 75%
GI50 (HCT116 (KRAS^G13D)): > 10000 nM
GI50 (LS174T (KRAS^G12D)): > 10000 nM
GI50 (Calu-1 (KRAS^G12C)): 904 nM
GI50 (SK-MEL-28 (BRAF^V600E)): < 0.1 nM
IC50 ([3]; read-out: IC50 pERK): > 10000 nM
IC50 ([3]; read-out: IC50 pMEK): > 10000 nM
GI50 (Calu-6 (KRAS^Q61K)): 618 nM

GI50 (Lovo (KRAS^G13D)): 4020 nM
GI50 (A375 (BRAF^V600E)): 75 ± 12 nM
IC50 ([1]; read-out: IC50 pERK): > 10000 nM
IC50 ([1]; read-out: IC50 pMEK): > 10000 nM
GI50 (HT-29 (BRAF^V600E)): 110 nM
GI50 (SK-MEL-30 (NRAS^Q61K)): > 10000 nM
GI50 (SK-MEL-2 (NRAS^Q61R)): > 10000 nM
GI50 (8505C (BRAF^V600E)): 3440 nM
IC50 ([2]; read-out: IC50 pERK): > 10000 nM
IC50 ([2]; read-out: IC50 pMEK): > 10000 nM
GI50 (SNU80 (BRAF^G468R)): 2850 nM
GI50 (B-CPAP (BRAF^V600E)): 31 nM
IC50 ([4]; read-out: IC50 pERK): > 10000 nM
IC50 ([4]; read-out: IC50 pMEK): > 10000 nM
GI50 (NPA (BRAF^V600E)): 44 nM
IC50 ([5]; read-out: IC50 pERK): > 10000 nM
IC50 ([5]; read-out: IC50 pMEK): > 10000 nM
GI50 (HCT116 (KRAS^G13D)): > 10000 nM
GI50 (Calu-1 (KRAS^G12C)): 7480 nM
GI50 (FRO (BRAF^V600E)): 1760 nM
GI50 (SNU790 (BRAF^V600E)): 190 nM
GI50 (ARO (BRAF^V600E)): 5260 nM
GI50 (SK-MEL-28 (BRAF^V600E)): 77 ± 17 nM
IC50 ([3]; read-out: IC50 pERK): > 10000 nM
IC50 ([3]; read-out: IC50 pMEK): > 10000 nM
IC50 ([6]; A-375, read-out: IC50 pERK): 20 nM
IC50 ([6]; A-375, read-out: IC50 pMEK): 73 nM
GI50 (Colo-205 (BRAF^V600E)): 65 nM
IC50 ([7]; read-out: IC50 pERK): 28 nM
IC50 ([7]; read-out: IC50 pMEK): 32 nM
IC50 (DDR2): > 10000 nM
IC50 (CSF1R (FMS)): > 10000 nM
IC50 (DDR1): > 10000 nM
GI50 (Calu-6 (KRAS^Q61K)): > 10000 nM
GI50 (CAL-62 (KRAS^G12R)): > 10000 nM
Structure (SMILES): CCCS(=O)(=O)Nc1ccc(F)c(C(=O)c2c[nH]c3ncc(-c4ccc(Cl)cc4)cc23)c1F [Vemurafenib, reference compound]
GI50 (LS513 (KRAS^G12D)): > 10000 nM
GI50 (LS174T (KRAS^G12D)): > 10000 nM

Structure (SMILES): Cn1cnc2c(F)c(Nc3ccc(Br)cc3F)c(C(=O)NOCCO)cc21 [binimetinib]
mPFS (NRAS-mutant melanoma): 2.8 months
overall response rate (NRAS-mutant melanoma): 15%

Structure (SMILES): Cc1ccc(NC(=O)c2ccnc(C(F)(F)F)c2)cc1-c1cc(OCCO)nc(N2CCOCC2)c1 [LXH254]
% P/T-MEK (P-MEK / total MEK; [8]): 80%
% P/T-MEK (P-MEK / total MEK; [9]): 70%
% P/T-MEK (P-MEK / total MEK; [10]): 10%
